Data from US20200338045A1, “ISOINDOLINE COMPOSITIONS AND METHODS FOR TREATING NEURODEGENERATIVE DISEASE” (priority 2017, published 2020).
Entries after “also recorded” stand apart in the source; their conditions may differ.

What was measured:
[1] = test system: hippocampal/cortical cultures; assay: Neurogranin expression study in vitro; type: cell-based; details: Aβ42 oligomers 500 nM 1 hr, then CT1812 4.8 nM 24 hr; 21 DIV cultures
Description: Neurons were fixed in 3.75% formaldehyde and stained with full-length neurogranin (Abcam catalogue # ab23570, used in combination with novel Ng7 to detect full length neurogranin in Alzheimer's disease patient brain IP; Kvartsberg et al. 2015 Blennow lab), MAP2 (Millipore), and 4G8 (Biolegend) antibodies. Imaging was performed on Cellomics VX automated microscope with a 20×, 0.75 NA objective and analyzed using a compartmental analysis algorithm to measure staining in the nucleus versus cytoplasm.

[2] = COG0102 pharmacokinetics: plasma and CSF concentrations, estimated brain receptor occupancy; type: in vivo, human; details: 90-560 mg
Description: This trial (ClinicalTrials.gov NCT02907567) was a randomized, double-blind, placebo-controlled clinical trial in mild to moderate Alzheimer's patients (MMSE 18-26) (See FIG. 1 for clinical trial design). The trial was conducted at six sites in Australia. Patients were randomized into placebo (n=5) or CT1812-treated groups: 90 mg (n=4), 280 mg (n=5) or 560 mg (n=5) and treated once daily for 28 days. Clinical chemistry was done at Sydpath (Sydney, AU). Pharmacokinetics were done at CPR Pharma Services (Adelaide, AU). Cerebrospinal fluid samples were taken at screening and day 21-28 of treatment and aliquoted. […] One set of CSF samples was analyzed for Alzheimer's disease biomarkers; protein measurements (Aβ42, A1340, total tau, tau phosphorylated at threonine 181 (phosphorylated tau), NFL and neurogranin) were performed using commercially available ELISA assays from Fujirebio according to the manufacturer's instructions (INNOTEST β-AMYLOID(1-42), INNOTEST β-AMYLOID(1-40), INNOTEST hTau Ag, INNOTEST PHOSPHO-TAU(181P), Uman Diagnostics NFL assay). Neurogranin was measured with a sandwich ELISA method using antibodies Ng2 and Ng22 developed at the University of Gotteborg (Kvartsberg et al. 2015). Identical aliquots of CSF, and plasma were analyzed for protein expression changes via LC/MSMS at Caprion (see below).

[3] = Phase 1 MAD CSF concentration of CT1812; type: in vivo, human; details: for receptor occupancy associated with CSF CT1812 levels: extrapolated from transgenic mouse brain; for concentration at 1.5 h: human, cerebrospinal fluid, oral, 1.5 hr post dose, Day 7 to Day 9
Text: CT1812 was quantitated in CSF using a validated LC-MS/MS method.

[4] = Phase 1 SAD safety (adverse events, laboratory, ECG); type: in vivo, human
Description: Part A was a single ascending dose cohort study in which healthy, young subjects (less than 65 years old) received one dose of study drug in the morning after an overnight fast. Cohort dosing started at 10 mg and increased to 30 mg, 90 mg, 180 mg, 450 mg, and 1120 mg in subsequent cohorts. Six drug-treated and two placebo-treated subjects were randomized in each cohort. A seventh cohort of six subjects each received a single 90 mg dose of drug 30 min. after a meal. Following completion of all safety assessments and blood draws for PK analyses, subjects were discharged on Day 3.
Safety variables, including incidence of adverse events (AEs), vital signs, clinical laboratory findings, 12-lead electrocardiographs (ECGs), physical examination, and affective and cognitive measures (Part B only), were summarized for all subjects who received study drug.

[5] = Phase 1 MAD cognitive testing in healthy elderly cohort; type: in vivo, human
Description: The Alzheimer's Disease Assessment Scale-Cognition Subscale (ADAS-Cog 13) and a cognitive battery (including the category fluency test, controlled word association test, WMS-R digit span, digit symbol substitution test, and Rey Auditory Verbal Learning Test) were administered to subjects in the elderly cohort at baseline and on Day 14.

[6] = test system: aged transgenic mouse models of AD; assay: Aged transgenic mouse models of AD (cognition, synapses, CSF proteins); type: in vivo

CC(C)(C)Oc1cc(CCC(C)(C)N2Cc3ccc(S(C)(=O)=O)cc3C2)ccc1O [CT1812]
full length neurogranin protein expression in neurons [1]: restores neurogranin expression | plasma CT1812 concentration vs dose ([2]; day 28): increased approximately dose proportionally | CSF CT1812 concentration vs dose ([2]; days 22-30): dose dependent increase | receptor occupancy associated with CSF CT1812 levels ([3]; 560 mg dose): 95% | projected receptor occupancy at average CSF concentrations ([3]; 560 mg-840 mg dose range, 1.5 hr post-dose, equivalent mouse brain concentration): 97-98% | receptor occupancy associated with CSF CT1812 levels ([3]; 840 mg dose): 98% | CSF CT1812 concentration vs dose ([3]; MAD 560 and 840 mg, at peak plasma concentrations): dose-dependent manner; also recorded: dose-dependent increases | blood-brain barrier penetration in humans ([3]; from CT1812 levels in CSF): penetrates the blood-brain barrier | concentration at 1.5 h ([3]; 560 mg daily): 8 ng/mL | concentration at 1.5 h ([3]; 840 mg daily): 23.3 ng/mL | ECG parameters or changes ([4]; SAD): No ECG parameters or changes were assessed as clinically significant | deaths or serious adverse events ([4]; SAD): no deaths or other serious adverse events | All TEAEs, number of subjects ([4]; SAD Total Active (n = 42)): 18 | Headache, % of subjects ([4]; SAD Total Active (n = 42)): (14%) | Headache, number of subjects ([4]; SAD Total Active (n = 42)): 6 | Nausea, % of subjects ([4]; SAD Total Active (n = 42)): (14%) | Nausea, number of subjects ([4]; SAD Total Active (n = 42)): 6 | All TEAEs, % of subjects ([4]; single 10 mg fasted (n = 6)): (33%) | All TEAEs, number of subjects ([4]; single 10 mg fasted (n = 6)): 2 | Headache, % of subjects ([4]; single 10 mg fasted (n = 6)): (50%) | Headache, number of subjects ([4]; single 10 mg fasted (n = 6)): 3 | Nausea, % of subjects ([4]; single 10 mg fasted (n = 6)): (17%) | Nausea, number of subjects ([4]; single 10 mg fasted (n = 6)): 1 | All TEAEs, % of subjects ([4]; single 30 mg fasted (n = 6)): (67%) | All TEAEs, number of subjects ([4]; single 30 mg fasted (n = 6)): 4 | All TEAEs, % of subjects ([4]; single 90 mg fed (n = 6)): (33%) | All TEAEs, number of subjects ([4]; single 90 mg fed (n = 6)): 2 | Headache, % of subjects ([4]; single 90 mg fed (n = 6)): (17%) | Headache, number of subjects ([4]; single 90 mg fed (n = 6)): 1 | All TEAEs, % of subjects ([4]; single 180 mg fasted (n = 6)): (33%) | All TEAEs, number of subjects ([4]; single 180 mg fasted (n = 6)): 2 | All TEAEs, % of subjects ([4]; single 450 mg fasted (n = 6)): (67%) | All TEAEs, number of subjects ([4]; single 450 mg fasted (n = 6)): 4 | Headache, % of subjects ([4]; single 450 mg fasted (n = 6)): (17%) | Headache, number of subjects ([4]; single 450 mg fasted (n = 6)): 1 | Nausea, % of subjects ([4]; single 450 mg fasted (n = 6)): (33%) | Nausea, number of subjects ([4]; single 450 mg fasted (n = 6)): 2 | All TEAEs, % of subjects ([4]; single 1120 mg fasted (n = 6)): (67%) | All TEAEs, number of subjects ([4]; single 1120 mg fasted (n = 6)): 4 | Headache, % of subjects ([4]; single 1120 mg fasted (n = 6)): (17%) | Headache, number of subjects ([4]; single 1120 mg fasted (n = 6)): 1 | Nausea, % of subjects ([4]; single 1120 mg fasted (n = 6)): (50%) | Nausea, number of subjects ([4]; single 1120 mg fasted (n = 6)): 3 | tolerability, single dose ([4]; single dose 10 mg to 1120 mg, healthy young subjects): safe and well tolerated | cognitive scores before vs after treatment ([5]; healthy elderly cohort, 560 mg, day zero vs day 14): similar | COWAT (Trial 2), Mean (SD) ([5]; healthy elderly, 560 mg for 14 days (N = 7), Day 14, Day 0: 9.6 (4.2)): 10.6 (5.1) | COWAT (Trial 1), Mean (SD) ([5]; healthy elderly, 560 mg for 14 days (N = 7), Day 14, Day 0: 11.3 (5.7)): 12.6 (4.5) | COWAT (Trial 3), Mean (SD) ([5]; healthy elderly, 560 mg for 14 days (N = 7), Day 14, Day 0: 14.6 (5.7)): 15.1 (3.7) | RAVLT, Mean (SD) ([5]; healthy elderly, 560 mg for 14 days (N = 7), Day 14, Day 0: 17.3 (3.9)): 18.7 (3.1) | WMS-R (Digit Span), Mean (SD) ([5]; healthy elderly, 560 mg for 14 days (N = 7), Day 14, Day 0: 17.9 (3.3)): 17.9 (3.3) | CFT, Mean (SD) ([5]; healthy elderly, 560 mg for 14 days (N = 7), Day 14, Day 0: 18.4 (5.5)): 19.7 (2.4) | DSST, Mean (SD) ([5]; healthy elderly, 560 mg for 14 days (N = 7), Day 14, Day 0: 78.3 (11.0)): 80 (9.6) | cognitive performance / memory ([6]; aged transgenic mouse models of AD): restoring normal cognitive performance; also recorded: restores cognitive function; also recorded: restores memory to normal | inflammatory protein expression in CSF ([6]; chronic treatment of aged transgenic mice, efficacious doses, LC/MSMS): significantly reduces
